According to publication PMC10313705, “Structure and transport mechanism of the human calcium pump SPCA1” (Cell Research, 2023):

Key:
hSPCA1 (hSPCA1a) [1] = molecular target: T1, hSPCA1 (hSPCA1a) (Homo sapiens, UniProt P98194); set-up: gene ATP2C1; conditions: phosphate analogue at Asp350; 10 mM NaF, 2 mM BeSO4, 1 mM CaCl2, Mg2+, pH 8.0; CaE2P (8IWS) and early E2P (8IWT) states
T1 sequence (P98194 1-919): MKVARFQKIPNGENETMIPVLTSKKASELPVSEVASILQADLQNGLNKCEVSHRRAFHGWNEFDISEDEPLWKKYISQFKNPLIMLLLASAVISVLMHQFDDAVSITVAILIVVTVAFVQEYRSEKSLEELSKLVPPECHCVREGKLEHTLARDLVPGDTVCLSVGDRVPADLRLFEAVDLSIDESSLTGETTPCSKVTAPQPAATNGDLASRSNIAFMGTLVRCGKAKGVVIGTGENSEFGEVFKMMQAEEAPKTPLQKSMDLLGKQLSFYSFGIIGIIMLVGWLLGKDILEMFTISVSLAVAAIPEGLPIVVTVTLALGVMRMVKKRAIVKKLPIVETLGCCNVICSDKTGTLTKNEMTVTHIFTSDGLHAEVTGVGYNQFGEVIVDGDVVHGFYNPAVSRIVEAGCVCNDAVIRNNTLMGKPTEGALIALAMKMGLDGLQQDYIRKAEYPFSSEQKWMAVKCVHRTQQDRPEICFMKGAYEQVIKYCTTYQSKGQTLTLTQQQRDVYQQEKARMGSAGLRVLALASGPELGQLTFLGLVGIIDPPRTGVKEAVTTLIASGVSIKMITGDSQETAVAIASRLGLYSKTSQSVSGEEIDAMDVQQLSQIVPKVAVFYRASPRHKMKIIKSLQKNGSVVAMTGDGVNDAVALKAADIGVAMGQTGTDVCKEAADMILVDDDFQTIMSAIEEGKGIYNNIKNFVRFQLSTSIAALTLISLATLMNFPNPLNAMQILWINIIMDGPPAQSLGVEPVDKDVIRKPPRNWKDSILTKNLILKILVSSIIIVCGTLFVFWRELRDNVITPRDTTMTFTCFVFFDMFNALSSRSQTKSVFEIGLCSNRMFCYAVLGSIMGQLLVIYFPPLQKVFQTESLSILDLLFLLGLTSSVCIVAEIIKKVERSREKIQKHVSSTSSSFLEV

hSPCA1 (hSPCA1a) [2] = molecular target: T1, hSPCA1 (hSPCA1a); experiment: cryo-EM structure ([…] Å); assay type: binding; set-up: gene ATP2C1; full-length (Met1-Val919), C-terminal 2x Strep tag, expressed in HEK293F cells, purified in DDM/CHS then digitonin; residues 1-15 and 906-919 not modelled; conditions: CaE1P-ADP state; 5 mM ADP, 5 mM NaF, 1 mM AlCl3; Ca2+, Mg2+, pH 8.0
hSPCA1 (hSPCA1a) [3] = molecular target: T1, hSPCA1 (hSPCA1a); experiment: cryo-EM structure; assay type: binding; set-up: gene ATP2C1; full-length (Met1-Val919), C-terminal 2x Strep tag, expressed in HEK293F cells, purified in DDM/CHS then digitonin; residues 1-15 and 906-919 not modelled; conditions: phosphate transition-state analogue at Asp350; E2~P state; 10 mM NaF, 2 mM AlCl3, Mg2+, no added Ca2+, pH 8.0
hSPCA1 (hSPCA1a) [4] = molecular target: T1, hSPCA1 (hSPCA1a); set-up: gene ATP2C1; conditions: ATP hydrolysis by purified protein in digitonin

[F][Be-]([F])[F] [BeF3^–]
cryo-EM structures (3.42 Å CaE2P; 3.25 Å early E2P) (hSPCA1 (hSPCA1a) [1]): allowed us to trace the BeF3^– densities which were clearly visible near Asp350

Nc1ncnc2c1ncn2[C@@H]1O[C@H](COP(=O)(O)OP(=O)(O)O)[C@@H](O)[C@H]1O [ADP]
cryo-EM structure (3.71 Å) (hSPCA1 (hSPCA1a) [2]): the ADP molecule (dark gray) in the CaE1P-ADP state

[F][Al-]([F])([F])[F] [AlF4^–]
cryo-EM structure (hSPCA1 (hSPCA1a) [3]): The EM densities derived from AlF4^– were clearly visible near Asp350

Nc1ncnc2c1ncn2[C@@H]1O[C@H](COP(=O)(O)OP(=O)(O)OP(=O)(O)O)[C@@H](O)[C@H]1O [ATP]
ATPase assay, Pi release kit (absorbance at 636 nm) (hSPCA1 (hSPCA1a) [4]): an ATPase activity assay demonstrated that it has ATP hydrolysis activity
